Test results taken from ChEMBL document CHEMBL1149948, “Chemical and enzymatic synthesis of high-affinity selectin ligands” (Bioorg Med Chem Lett, 1997).

What was measured:
P-selectin = target: T1, P-selectin (Homo sapiens, UniProt P16109); test: Tested for its ability to inhibit HL60 cell adhesion to P-selectin-IgG fusion proteins; type: cell-based, HL-60
T1 sequence (P16109 whole entry): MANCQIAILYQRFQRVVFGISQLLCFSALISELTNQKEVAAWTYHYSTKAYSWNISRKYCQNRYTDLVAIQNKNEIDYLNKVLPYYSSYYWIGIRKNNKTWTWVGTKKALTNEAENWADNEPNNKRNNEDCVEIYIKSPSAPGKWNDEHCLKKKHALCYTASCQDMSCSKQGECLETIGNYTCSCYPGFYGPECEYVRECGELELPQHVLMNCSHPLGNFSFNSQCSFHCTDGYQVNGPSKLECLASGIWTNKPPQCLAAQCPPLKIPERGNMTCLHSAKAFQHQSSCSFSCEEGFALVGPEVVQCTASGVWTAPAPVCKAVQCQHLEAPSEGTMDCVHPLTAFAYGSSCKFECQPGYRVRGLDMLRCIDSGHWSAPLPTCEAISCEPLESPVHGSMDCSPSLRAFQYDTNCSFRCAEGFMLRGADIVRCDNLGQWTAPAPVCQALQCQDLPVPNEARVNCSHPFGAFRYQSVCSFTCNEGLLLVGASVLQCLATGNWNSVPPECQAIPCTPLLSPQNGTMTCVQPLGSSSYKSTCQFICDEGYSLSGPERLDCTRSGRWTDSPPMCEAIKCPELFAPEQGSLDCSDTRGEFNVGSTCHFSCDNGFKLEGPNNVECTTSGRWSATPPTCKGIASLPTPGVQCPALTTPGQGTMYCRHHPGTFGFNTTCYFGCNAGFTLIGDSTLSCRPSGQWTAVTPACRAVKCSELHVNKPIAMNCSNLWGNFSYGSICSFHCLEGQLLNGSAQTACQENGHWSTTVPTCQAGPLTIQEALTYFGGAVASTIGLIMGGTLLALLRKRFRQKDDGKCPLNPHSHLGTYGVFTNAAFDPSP

E-selectin = target: T2, E-selectin (Homo sapiens, UniProt P16581); test: Tested for its ability to inhibit HL60 cell adhesion to Selectin E IgG fusion proteins; type: cell-based, HL-60
T2 sequence (P16581 whole entry): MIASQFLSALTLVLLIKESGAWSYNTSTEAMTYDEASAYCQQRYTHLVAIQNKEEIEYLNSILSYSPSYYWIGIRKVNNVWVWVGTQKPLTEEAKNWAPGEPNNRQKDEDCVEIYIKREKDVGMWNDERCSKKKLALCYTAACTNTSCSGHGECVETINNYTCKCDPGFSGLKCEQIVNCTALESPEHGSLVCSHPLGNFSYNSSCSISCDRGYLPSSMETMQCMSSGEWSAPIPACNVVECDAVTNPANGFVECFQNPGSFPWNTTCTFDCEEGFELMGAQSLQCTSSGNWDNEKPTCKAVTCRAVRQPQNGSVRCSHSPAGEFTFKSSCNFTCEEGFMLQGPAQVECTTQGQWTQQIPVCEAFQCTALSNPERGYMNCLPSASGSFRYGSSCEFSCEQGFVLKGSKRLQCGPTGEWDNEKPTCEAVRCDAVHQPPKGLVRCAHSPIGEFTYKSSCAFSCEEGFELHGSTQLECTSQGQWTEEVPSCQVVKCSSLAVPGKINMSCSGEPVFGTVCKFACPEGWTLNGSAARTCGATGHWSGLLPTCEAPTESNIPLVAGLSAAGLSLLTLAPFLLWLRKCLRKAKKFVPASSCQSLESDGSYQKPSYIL

Compound | IC50 (P-selectin; hl-60) | IC50 (P-selectin) | IC50 (E-selectin)
CC(=O)N[C@@H]1[C@H](OCCCCCCN)O[C@@H](CO)[C@@H](O[C@@H]2O[C@@H](CO)[C@H](O)[C@H](O[C@]3(C(=O)O)C[C@@H](O)[C@@H](NC(C)=O)[C@H]([C@H](O)[C@H](O)CO)O3)[C@@H]2O)[C@@H]1O[C@@H]1O[C@@H](C)[C@@H](O)[C@H](O)[C@@H]1O | 2000 µM |  | 
CC(=O)N[C@@H]1[C@H](OCCCCCCN)O[C@@H](CO)[C@@H](O[C@@H]2O[C@@H](CO)[C@H](O)[C@H](O[C@]3(C(=O)O)C[C@@H](O)[C@@H](N)[C@H]([C@H](O)[C@H](O)CO)O3)[C@@H]2O)[C@@H]1O[C@@H]1O[C@@H](C)[C@@H](O)[C@H](O)[C@@H]1O |  | 1000 µM | 900 µM
CC(=O)N[C@@H]1[C@H](OCCCCCCN)O[C@@H](CO)[C@@H](O[C@@H]2O[C@@H](CO)[C@H](O)[C@H](O[C@]3(C(=O)O)C[C@@H](O)C[C@H]([C@H](O)[C@H](O)CO)O3)[C@@H]2O)[C@@H]1O[C@@H]1O[C@@H](C)[C@@H](O)[C@H](O)[C@@H]1O |  | 700 µM | 700 µM
C[C@@H]1O[C@@H](O[C@@H]2[C@H](N)[C@H](OCCCCCCN)O[C@@H](CO)[C@H]2O[C@@H]2O[C@@H](CO)[C@H](O)[C@H](O[C@]3(C(=O)O)C[C@@H](O)[C@@H](N)[C@H]([C@H](O)[C@H](O)CO)O3)[C@@H]2O)[C@@H](O)[C@@H](O)[C@@H]1O |  | 160 µM | 270 µM
